Results: patent publication US20060222628A1, “Gallium complexes of 3-hydroxy-4-pyrones to treat infection by intracellular prokaryotes and DNA viruses” (priority 1999, published 2006)

Experiments:
HIV-1 = assay: Clinical evaluation in co-infection by HIV and hepatitis B: HIV; assay type: in vivo, human; settings: hepatitis B co-infected patients; MacSynergy II
Method: Gallium maltolate is evaluated clinically for efficacy in treating hepatitis B co-infection of a HIV-1 patients. In addition to the methods used in Example 5 for evaluating the HIV disease, the methods employed in the clinical studies discussed in the following references are used in the evaluation: Yao et al. (1997), “Treatment of Chronic Hepatitis B: New Antiviral Therapies,” Curr. Gastroenterol. Rep. 1(1):20-26; Hoofnagle et al. (1997), “New therapies for chronic hepatitis B,” supra.
Patients are treated once per day with gelatin capsules containing gallium maltolate. The population of patients with hepatitis B and HIV infection are first divided into two subpopulations groups based on CD4+ counts (above 350/mm^3 and below 350/mm^3). […]
In each subpopulation, the first group's four subgroups from each subpopulation (above 350/mm^3 and below 350/mm^3) additionally receive the gallium maltolate dose together with 10 million IU interferon by injection once per day. […] Patients are monitored for HIV disease precisely as described in Example 5. Patients are also medically monitored for liver disease, including liver function testing and examination for medical symptoms of hepatitis B infection throughout the study, with careful attention to the possibility that the drugs themselves may cause some liver disease and elevate the liver function tests. […]

Herpes Simplex = assay: Clinical evaluation for Herpes Simplex (I or II) infection and recurrences; assay type: in vivo, human
Method: Patients with Herpes Simplex infection are treated once per day with gelatin capsules containing gallium maltolate. The population of patients is divided into subpopulation with recurrent Herpes Simplex and acute Herpes Simplex infections respectively. These different subpopulations are divided randomly and blindly into two approximately equal groups with four approximately equal subgroups that receive either 0 (placebo), 250, 500, or 750 mg/day gallium maltolate for about six months. The first group of each subpopulation receive the gallium maltolate dose together with 200 mg acyclovir five times per day. The second group of each subpopulation receive the gallium maltolate dose together with 500 mg ganciclovir twice per day. Patients are medically monitored for resolution recurrences of latent Herpes Simplex infection, or medical symptoms of acute Herpes Simplex infection throughout the study, with the monitoring including in situ hybridization of skin lesions for HSV DNA. In addition for the acute Herpes Simplex infected group, blood serum samples are obtained from the patients at days 0, 3, 7, and 10 and are assayed for HSV particle by routine methods and for Herpes Simplex DNA (viral load assay) using PCR.

[1] = in vivo, po; cited from earlier work
transferrin (Tf) = biological target: T1, transferrin (Tf) (Homo sapiens, UniProt P02787); settings: oral, versus intravenous gallium nitrate; cited from earlier work
T1 construct: host or cells: circulating (blood plasma) transferrin of the dosed subject

EBV and KSV = assay: Clinical evaluation for prevention of EBV or KSV neoplasms in HIV patients: neoplasia; assay type: in vivo, human
Text: (§1) Both EBV and KSV cause neoplasms, with both causing lymphomas and KSV ([…]) along with HHV-7, possibly in concert with HHV-6 associated with the pathogenesis of Kaposi Sarcoma. Most humans carry all these viruses. A HIV population could be studied without determining whether any of the patients are seropositive or culturable for these pathogens, or preferably a group of HIV patients who are seropositive or culture positive for both EBV and KSV can be identified. Applying the methods of Example 12 with additional guidance from Schneider et al. (2000), supra, yields a protocol for evaluating the contribution of the gallium compounds of the invention in prevention of opportunistic neoplasms caused by the herpes viruses with combination antiviral therapy.
Using essentially the same protocol as Example 12, but with an HIV infected patient population that is seropositive or culture positive for both EBV and KSV and substituting the specific assays such as PCR, serodetection for the EBV and KSV viruses, the role of gallium as a combination agent in preventing the neoplasms caused by members of the herpesvirus family in HIV disease can be evaluated. The subpopulations are divided according to CD4 counts as in Example 12. Each subpopulation's first group is treated in addition to the foscarnet with interferon-alpha. Each subpopulation's second group is treated in addition to the ganciclovir with the same doses of foscarnet and interferon-alpha as the first group. The dosages of the foscarnet and are as in Example 12, as are the dosages for the gallium maltolate for each groups four subgroups. Thus within each subpopulation, gallium plus foscarnet plus traditional HAART is compared to gallium plus foscarnet plus traditional HAART plus ganciclovir. An all oral regimen would be preferable but success would be unlikely. The dosage level for the interferon-alpha used is that used for treating Kaposi Sarcoma (20 million IU every day by injection), a dose that may require adjustment for tolerance in some patients. […]

HIV = assay: Clinical evaluation for prevention of EBV or KSV neoplasms in HIV patients: HIV; assay type: in vivo; settings: neoplasm prevention study; MacSynergy II
Text: as §1
Using essentially the same protocol as Example 12, but with an HIV infected patient population that is seropositive or culture positive for both EBV and KSV and substituting the specific assays such as PCR, serodetection for the EBV and KSV viruses, the role of gallium as a combination agent in preventing the neoplasms caused by members of the herpesvirus family in HIV disease can be evaluated. The subpopulations are divided according to CD4 counts as in Example 12. Each subpopulation's first group is treated in addition to the foscarnet with interferon-alpha. […]

[2] = in vivo
Text: Gallium is absorbed very poorly when orally administered as salts such as the chloride or nitrate (Collery et al. (1989), “Clinical pharmacology of gallium chloride after oral administration in lung cancer patients,” Anticancer Res. 9:353-356; Ho et al. […] J.

T1 sequence (P02787 20-698, species assumed): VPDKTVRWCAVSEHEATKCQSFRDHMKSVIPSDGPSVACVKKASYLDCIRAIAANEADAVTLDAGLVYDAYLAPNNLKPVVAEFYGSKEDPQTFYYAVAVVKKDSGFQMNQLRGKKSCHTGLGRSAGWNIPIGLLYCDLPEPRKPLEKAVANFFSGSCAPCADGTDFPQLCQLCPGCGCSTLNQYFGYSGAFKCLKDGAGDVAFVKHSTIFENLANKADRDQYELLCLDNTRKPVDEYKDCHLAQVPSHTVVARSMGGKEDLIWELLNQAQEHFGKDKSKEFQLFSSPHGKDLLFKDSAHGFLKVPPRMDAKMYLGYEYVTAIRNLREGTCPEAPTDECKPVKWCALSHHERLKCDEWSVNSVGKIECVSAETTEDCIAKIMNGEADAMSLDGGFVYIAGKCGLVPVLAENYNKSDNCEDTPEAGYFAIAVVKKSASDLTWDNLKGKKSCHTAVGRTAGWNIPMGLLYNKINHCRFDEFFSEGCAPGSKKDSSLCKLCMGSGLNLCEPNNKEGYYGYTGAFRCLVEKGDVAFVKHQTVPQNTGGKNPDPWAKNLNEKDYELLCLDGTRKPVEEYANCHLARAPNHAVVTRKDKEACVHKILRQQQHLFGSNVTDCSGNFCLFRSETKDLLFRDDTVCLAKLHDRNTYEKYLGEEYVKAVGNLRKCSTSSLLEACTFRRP

Cc1occc(=O)c1[O-].Cc1occc(=O)c1[O-].Cc1occc(=O)c1[O-].[Ga+3] [gallium maltolate, tris(3-hydroxy-2-methyl-4H-pyran-4-onato)gallium]
Synergy with the HAART regime on HIV infection (HIV-1): synergistic with the HAART regime in their effects upon the HIV infection | Efficacy in treating Herpes Simplex infection (Herpes Simplex; HIV negative patients, 250-750 mg/day oral with acyclovir or ganciclovir): effective for treating Herpes Simplex infection, including recurrent sores as well as more serious systemic disease | Efficacy of combination with acyclovir or ganciclovir versus single agents (Herpes Simplex; Herpes Simplex): more effective than either agent alone | Synergy with nucleoside analogs (Herpes Simplex; Herpes Simplex, MacSynergy II): synergy of gallium with both nucleoside analogs is also demonstrated | Renotoxicity or nephrotoxicity [1]: no renotoxicity or nephrotoxicity has been observed | Tf binding of absorbed gallium and tissue distribution (transferrin (Tf)): higher Tf binding of absorbed gallium and therefore better tissue distribution than intravenous gallium nitrate | Efficacy in preventing herpesvirus neoplasia in combination (EBV and KSV; HIV infected patients on HAART, with foscarnet, interferon-alpha, ganciclovir): effective in combination with foscarnet, interferon and ganciclovir | Prevention of opportunistic herpesvirus associated neoplasms (EBV and KSV; combined with foscarnet, ganciclovir and interferon, high CD4+ group): producing the best results | Synergy in preventing herpesvirus neoplasia (EBV and KSV; with foscarnet, interferon and ganciclovir): synergistic with all | Synergy with the HAART regime on HIV infection (HIV): synergistic with the HAART regime in their effects upon the HIV infection | Oral gallium absorption relative to gallium salts [2]: roughly ten times higher than from gallium salts
